Test results: patent publication US20250082598A1, “Melafenoxate, 2-(1-adamantylamino)ethyl 2-(4-chlorophenoxy)acetate and derivatives thereof for treating circadian rhythm sleep disorders with neurodegenerative diseases such as Alzheimer's disease” (NLS Pharmaceutics AG, priority 2021, published 2025)

Biological target: T1, RXFP3 (h) (Homo sapiens, UniProt Q9NSD7)
T1 sequence (Q9NSD7 1-469): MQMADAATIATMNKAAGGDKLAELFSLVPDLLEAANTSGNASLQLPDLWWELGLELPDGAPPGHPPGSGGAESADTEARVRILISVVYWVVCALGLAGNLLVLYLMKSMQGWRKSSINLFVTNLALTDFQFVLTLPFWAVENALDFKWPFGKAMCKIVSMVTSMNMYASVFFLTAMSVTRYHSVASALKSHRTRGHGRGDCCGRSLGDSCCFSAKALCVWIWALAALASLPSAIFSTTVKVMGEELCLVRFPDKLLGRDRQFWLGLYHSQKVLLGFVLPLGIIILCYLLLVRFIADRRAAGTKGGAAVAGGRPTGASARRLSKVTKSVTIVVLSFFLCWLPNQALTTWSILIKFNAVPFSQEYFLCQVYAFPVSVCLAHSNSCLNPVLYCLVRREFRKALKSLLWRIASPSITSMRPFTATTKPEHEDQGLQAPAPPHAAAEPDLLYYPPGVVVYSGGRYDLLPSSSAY
Experiment: RXFP3 assay (Eurofins/LeadHunter, cAMP Hunter GPCR Biosensor)
Assay type: cell-based
Procedure: Melafenoxate is found to weakly bind with RXFP3 and RXFP4 receptors (Study FR095-0024749-Q Eurofins/leadHunter Jun. 25, 2021; unpublished data).
In these assays' compounds were tested in agonist and antagonist mode with the GPCR Biosensor Assays and match to this design:
• 1. CAMP Hunter cell lines were expanded from freezer stocks according to standard procedures. • 2. Cells were seeded in a total volume of 20 μL into white walled, 384-well microplates and incubated at 37° C. for the appropriate time prior to testing. • 3. cAMP modulation was determined using the DiscoverX HitHunter CAMP XS+assay.
• 1. For agonist determination, cells were incubated with sample to induce response. • 2. Media was aspirated from cells and replaced with 15 μL 2:1 HBSS/10 mM Hepes: CAMP XS+ Ab reagent. • 3. […]
• 1. […] Microplates were read following signal generation with a PerkinElmer Envision™ instrument for chemiluminescent signal detection.
• 1. Compound activity was analyzed using CBIS data analysis suite (ChemInnovation, CA). • 2. For Gs agonist mode assays, percentage activity is calculated using the following formula:
% Activity=100%×(mean RLU of test sample−mean RLU of vehicle control)/(mean RLU of MAX control−mean RLU of vehicle control). • 3. For Gs positive allosteric mode assays, percentage modulation is calculated using the following formula: http://www.eurofinsdiscoveryservices.com Confidential Jun. […]

SMILES: O=C(COc1ccc(Cl)cc1)OCCNC12CC3CC(CC(C3)C1)C2 [Melafenoxate, 2-(1-adamantylamino)ethyl 2-(4-chlorophenoxy)acetate]
- binding with RXFP3 receptor (in words): weakly bind
- % Inhibition at 5*10^−5 M (5*10^−5 M): 29.1%
